Results from PubChem BioAssay (NCI).
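Tested at 5 concentrations; 48 h exposure; 96-well plates; endpoints linearly interpolated, else capped at highest concentration. GI50: concentration for 50% inhibition of growth. TGI: concentration producing complete growth inhibition.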

What was measured:
Test in all cases: inhibition of tumour cell growth, NCI panel, 48 h
[1] = system: 786-0 renal
[2] = system: A498 renal
[3] = system: A549 NSCLC
[4] = system: ACHN renal
[5] = system: BT-549 breast
[6] = system: CAKI-1 renal
[7] = system: CCRF-CEM leukemia
[8] = system: COLO 205 colon
[9] = system: DU-145 prostate
[10] = system: EKVX NSCLC
[11] = system: HCC-2998 colon
[12] = system: HCT-116 colon
[13] = system: HCT-15 colon
[14] = system: HL-60(TB) leukemia
[15] = system: HOP-62 NSCLC
[16] = system: HOP-92 NSCLC
[17] = system: HS 578T breast
[18] = system: HT29 colon
[19] = system: IGROV1 ovarian
[20] = system: K-562 leukemia
[21] = system: KM12 colon
[22] = system: LOX IMVI melanoma
[23] = system: M14 melanoma
[24] = system: MALME-3M melanoma
[25] = system: MCF7 breast
[26] = system: MDA-MB-231 breast
[27] = system: MDA-MB-435
[28] = system: MOLT-4 leukemia
[29] = system: NCI-H226 lung
[30] = system: NCI-H23 lung
[31] = system: NCI-H460 lung
[32] = system: NCI-H522 lung
[33] = system: NCI/ADR-RES ovarian
[34] = system: OVCAR-3 ovarian
[35] = system: OVCAR-4 ovarian
[36] = system: OVCAR-5 ovarian
[37] = system: OVCAR-8 ovarian
[38] = system: PC-3 prostate
[39] = system: RPMI-8226 leukemia
[40] = system: RXF 393 renal
[41] = system: SF-268 CNS
[42] = system: SF-295 CNS
[43] = system: SF-539 CNS
[44] = system: SK-MEL-2 melanoma
[45] = system: SK-MEL-28 melanoma
[46] = system: SK-MEL-5 melanoma
[47] = system: SK-OV-3 ovarian
[48] = system: SN12C renal
[49] = system: SNB-19 CNS
[50] = system: SNB-75 CNS
[51] = system: SW-620 colon
[52] = system: T-47D breast
[53] = system: TK-10 renal
[54] = system: U251 CNS
[55] = system: UACC-257 melanoma
[56] = system: UACC-62 melanoma
[57] = system: UO-31 renal
[58] = system: SR leukemia

COc1ccc2c(c1)C(=O)c1c-2c(OCCCN(C)C)nc2cc(Br)ccc12
GI50 [1]: 1590 nM
TGI [1]: 2990 nM
GI50 [2]: 7310 nM
TGI [2]: 20500 nM
GI50 [3]: 3520 nM
TGI [3]: 11400 nM
GI50 [4]: 1290 nM
TGI [4]: 2730 nM
GI50 [5]: 13500 nM
TGI [5]: 28000 nM
GI50 [6]: 11000 nM
TGI [6]: 23500 nM
GI50 [7]: 5200 nM
TGI [7]: 23800 nM
GI50 [8]: 13800 nM
TGI [8]: > 100000 nM
GI50 [9]: 5910 nM
TGI [9]: 18900 nM
GI50 [10]: 2780 nM
TGI [10]: 13500 nM
GI50 [11]: 10300 nM
TGI [11]: 22700 nM
GI50 [12]: 5160 nM
TGI [12]: 18500 nM
GI50 [13]: 4750 nM
TGI [13]: 18300 nM
GI50 [14]: 29400 nM
TGI [14]: > 100000 nM
GI50 [15]: 1810 nM
TGI [15]: 4290 nM
GI50 [16]: 6120 nM
TGI [16]: 20400 nM
GI50 [17]: 3460 nM
TGI [17]: 15400 nM
GI50 [18]: 10500 nM
TGI [18]: 26800 nM
TGI [19]: 26900 nM
GI50 [20]: 6750 nM
TGI [20]: 23100 nM
GI50 [21]: 11400 nM
TGI [21]: 24300 nM
GI50 [22]: 11300 nM
TGI [22]: 23700 nM
GI50 [23]: 14800 nM
TGI [23]: 29000 nM
GI50 [24]: 1870 nM
TGI [24]: 4640 nM
GI50 [25]: 2320 nM
TGI [25]: 13700 nM
GI50 [26]: 3180 nM
TGI [26]: 13500 nM
GI50 [27]: 5450 nM
TGI [27]: 18100 nM
GI50 [28]: 3090 nM
TGI [28]: 18700 nM
GI50 [29]: 4630 nM
TGI [29]: 18700 nM
GI50 [30]: 11300 nM
TGI [30]: 24600 nM
GI50 [31]: 2540 nM
TGI [31]: 7570 nM
GI50 [32]: 7050 nM
TGI [32]: 21900 nM
GI50 [33]: 2840 nM
TGI [33]: 16500 nM
GI50 [34]: 3450 nM
TGI [34]: 13400 nM
GI50 [35]: 1960 nM
TGI [35]: 5170 nM
GI50 [36]: 1710 nM
TGI [36]: 3590 nM
GI50 [37]: 2630 nM
TGI [37]: 6950 nM
GI50 [38]: 3040 nM
TGI [38]: 7780 nM
GI50 [39]: 15900 nM
TGI [39]: 39700 nM
GI50 [40]: 1700 nM
TGI [40]: 3400 nM
GI50 [41]: 2500 nM
TGI [41]: 10400 nM
GI50 [42]: 7300 nM
TGI [42]: 20700 nM
GI50 [43]: 1690 nM
TGI [43]: 3160 nM
GI50 [44]: 19100 nM
TGI [44]: 36300 nM
GI50 [45]: 1870 nM
TGI [45]: 3740 nM
GI50 [46]: 15000 nM
TGI [46]: 28300 nM
GI50 [47]: 7280 nM
TGI [47]: 22900 nM
GI50 [48]: 2010 nM
TGI [48]: 4510 nM
GI50 [49]: 3080 nM
TGI [49]: 11800 nM
GI50 [50]: 1570 nM
TGI [50]: 4440 nM
GI50 [51]: 5200 nM
TGI [51]: 20000 nM
GI50 [52]: 10800 nM
TGI [52]: 32200 nM
GI50 [53]: 4170 nM
TGI [53]: 13800 nM
GI50 [54]: 2100 nM
TGI [54]: 4220 nM
GI50 [55]: 16400 nM
TGI [55]: 32900 nM
GI50 [56]: 12500 nM
TGI [56]: 26400 nM
GI50 [57]: 1360 nM
TGI [57]: 2880 nM

C/C(=N/NC(=S)Nc1ccccc1)c1nc2ccc(Cl)cc2[nH]1
GI50 [1]: 91.8 nM
TGI [1]: 368 nM
GI50 [2]: 80.6 nM
TGI [2]: 708 nM
GI50 [3]: 217 nM
TGI [3]: 1410 nM
GI50 [5]: 135 nM
TGI [5]: 924 nM
GI50 [7]: 39 nM
TGI [7]: 7180 nM
GI50 [9]: 82.1 nM
TGI [9]: 645 nM
GI50 [10]: 100 nM
TGI [10]: 959 nM
GI50 [11]: 135 nM
TGI [11]: 725 nM
GI50 [12]: 81.1 nM
TGI [12]: 771 nM
GI50 [13]: 65.6 nM
TGI [13]: 6900 nM
GI50 [14]: 101 nM
TGI [14]: 503 nM
GI50 [15]: 101 nM
TGI [15]: 935 nM
GI50 [16]: 585 nM
TGI [16]: 1520 nM
GI50 [17]: 570 nM
TGI [17]: 1960 nM
GI50 [19]: 140 nM
TGI [19]: 1190 nM
GI50 [20]: 147 nM
TGI [20]: 13400 nM
GI50 [21]: 140 nM
TGI [21]: 826 nM
GI50 [23]: 76.3 nM
TGI [23]: 260 nM
GI50 [24]: 73.7 nM
TGI [24]: 401 nM
GI50 [26]: 205 nM
TGI [26]: 1790 nM
GI50 [28]: 86 nM
TGI [28]: 1100 nM
GI50 [29]: 134 nM
TGI [29]: 925 nM
GI50 [30]: 406 nM
TGI [30]: 1520 nM
GI50 [31]: 35.1 nM
TGI [31]: 522 nM
GI50 [32]: 194 nM
TGI [32]: 821 nM
GI50 [34]: 77.7 nM
TGI [34]: 1260 nM
GI50 [35]: 46.6 nM
TGI [35]: 2420 nM
GI50 [37]: 160 nM
TGI [37]: 1150 nM
GI50 [38]: 236 nM
TGI [38]: 2230 nM
GI50 [39]: 202 nM
TGI [39]: 3360 nM
GI50 [40]: 165 nM
TGI [40]: 783 nM
GI50 [41]: 74.7 nM
TGI [41]: 858 nM
GI50 [43]: 129 nM
TGI [43]: 686 nM
GI50 [44]: 252 nM
TGI [44]: 901 nM
GI50 [45]: 180 nM
TGI [45]: 872 nM
GI50 [46]: 98.9 nM
TGI [46]: 457 nM
GI50 [47]: 246 nM
TGI [47]: 1390 nM
GI50 [49]: 250 nM
TGI [49]: 1710 nM
GI50 [50]: 328 nM
TGI [50]: 1040 nM
GI50 [58]: 88.1 nM
TGI [58]: 1230 nM
GI50 [51]: 208 nM
TGI [51]: 990 nM
GI50 [52]: 292 nM
TGI [52]: 1560 nM
GI50 [53]: 539 nM
TGI [53]: 2610 nM
GI50 [54]: 99.6 nM
TGI [54]: 1020 nM
GI50 [55]: 236 nM
TGI [55]: 850 nM
GI50 [56]: 126 nM
TGI [56]: 425 nM
GI50 [57]: 73.8 nM
TGI [57]: 795 nM
